Experiments:
Assay in all cases: Cytostatic cell culture assay (GI50), SRB
Format in all cases: cell-based
[1] = system: BT-549; details: Homo sapiens, BT-549, 120 h; 5 days incubation
Description: (§1) The assay is based on quantification of cell counts by a colorimetric detection of the cell associated proteins. The assay relies on the ability of sulforhodamine B (SRB) to bind to protein components of cells that have been fixed to tissue-culture plates by trichloroacetic acid (TCA). SRB is a bright-pink aminoxanthene dye with two sulfonic groups that bind to basic amino-acid residues under mild acidic conditions, and dissociate under basic conditions. As the binding of SRB is stoichiometric, the amount of dye extracted from stained cells is directly proportional to the cell mass.
(§2) Cell lines: All cell lines were obtained from ATCC (Manassas, Va.). Cultivation media containing Glutamax, and trypsin were purchased from Invitrogen (Carlsbad, Calif.). Doxorubicin, Clofarabine, TCA and SRB were from Sigma-Aldrich (St. Louis, Mo.). Gemcitabine was obtained from Moravek Biochemicals (Brea, Calif.)
(§3) • 1. Trypsinize the sub-confluent cells, count them, and adjust the cell concentrations according to the cell counts listed in Table 1. • 2. Distribute the cells into the 96-well plates in 150 μL of media. Incubate the plates overnight in humidified CO2 incubator at 37° C. • 3. Fix one plate of each cell line with TCA. Discard the cultivation media from the plates by flicking them gently and add 100 ul cold 10% (vol/vol) TCA to each well. Incubate the plates at 4 degree refrigerator for 1 hour. Discard TCA from the plates by flicking them gently. Rinse plates four times in a washing basin containing tap water. Store the plates at room temperature. These plates represent cell counts on day zero. • 4. Prepare a set of medium solutions containing various concentrations of tested compounds by making 5-fold serial dilutions in 96-well plate. Add 50 μL of the diluted compounds per well. Include controls with untreated cells and cells treated with doxorubicin, clofarabine and gemcitabine. • 5. Incubate the plates for 5 days at 37° C. • 6. Fix the plates with TCA. Discard the cultivation media from the plates by flicking them gently and add 100 ul cold 10% (vol/vol) TCA to each well. Incubate the plates at 4 degree refrigerator for 1 hour. Discard TCA from the plates by flicking them gently. Rinse plates four times in a washing basin containing tap water. • 7. Remove excess water by tapping the plates face down, gently on a paper towel. Allow the plates to air-dry at room temperature. • 8. Add 100 ul of 0.057% SRB solution in 1% (vol/vol) acetic acid to each well of the plates fixed with TCA on day zero and five. Leave at room temperature for 30 minutes. • 9. Flick the plates gently to discard SRB. Rinse the plates four times with 1% (vol/vol) Acetic Acid. • 10. Store the plates at 37 degree incubator to facilitate faster drying. • 11. Once the plates are completely dry, add 200 ul of 10 mM Tris base solution (pH 10.5) to each well. Leave at room temperature for 30 minutes for SRB to solubilize. • 12. Measure the OD at 500 nm in a microplate reader • 13. Calculate the percentage of cell-growth inhibition using the next formula: % of control cell growth=100×(ODsample−mean ODday0)/(ODneg control−mean ODday0)
(§4) For GI50 determination, plot a dose-response curve between the compound concentration and percent of growth inhibition. GI50 values can be derived by fitting dose-response curves using sigmoidal dose response equation.

[2] = system: A549; details: Homo sapiens, A549, 120 h; 5 days incubation
Description: as §1, §2, §3, §4

[3] = system: Du-145; details: Homo sapiens, DU-145, 120 h; 5 days incubation
Description: as §1, §2, §3, §4

[4] = system: HCT-15; details: Homo sapiens, HCT-15, 120 h; 5 days incubation
Description: as §1, §2, §3, §4

[5] = system: HCT-116; details: Homo sapiens, HCT-116, 120 h; 5 days incubation
Description: as §1, §2, §3, §4

[6] = system: PC3; details: Homo sapiens, PC-3, 120 h; 5 days incubation
Description: as §1, §2, §3, §4

[7] = system: NCI-H23; details: Homo sapiens, NCI-H23, 120 h; 5 days incubation
Description: as §1, §2, §3, §4

[8] = system: Hs-578; details: Hs578, 120 h; 5 days incubation
Description: as §1, §2, §3, §4

SMILES | GI50 [1] [µM] | GI50 [2] [µM] | GI50 [3] [µM] | GI50 [4] [µM] | GI50 [5] [µM] | GI50 [6] [µM] | GI50 [7] [µM] | GI50 [8] [µM]
CCCCOC(=O)[C@H](C)NP(=O)(COCCn1cnc2c(OC)nc(N)nc21)N[C@@H](C)C(=O)OCCCC [Example 27] | 0.033 | 0.026 | 0.002 | 2.37 | 0.023 | 0.013 | 0.004 | 0.053
CCCOc1nc(N)nc2c1ncn2CCOCP(=O)(Oc1ccc(C#N)cc1)N1CCC[C@H]1C(=O)OCC (stereo partly shown) [Example 63] | 0.282 | 0.014 | 0.001 | 3.35 | 0.184 | 0.002 | 0.001 | 0.007
CCOC(=O)[C@H](C)NP(=O)(COCCn1cnc2c(OC3CCCC3)nc(N)nc21)N[C@@H](C)C(=O)OCC [Example 46] | 0.286 | 0.474 | 0.017 | 6.3 | 0.269 | 0.085 | 0.023 | 0.096
Nc1nc(OC2CCCC2)c2ncn(CCOCP(=O)(O)O)c2n1 [Example 10, [2-(2-Amino-6-cyclopentyloxy-purin-9-yl)-ethoxymethyl]-phosphonic acid] | 2.99 | 3.06 | 0.054 | 2.38 | 1.79 | 1.01 | 0.603 | 2.26
CCCCOC(=O)[C@H](C)NP(=O)(COCCn1cnc2c(OC3CC3)nc(N)nc21)N[C@@H](C)C(=O)OCCCC [Example 43] | 0.017 | 0.102 | – | 1.52 | 0.011 | 0.032 | 0.001 | 0.032
CCCOc1nc(N)nc2c1ncn2CCOCP(=O)(N1CCC[C@H]1C(=O)OC(C)C)N1CCC[C@H]1C(=O)OC(C)C [Example 24] | 0.386 | 3.82 | 0.138 | > 10 | 0.979 | 0.634 | 0.124 | 0.452
COCCOc1nc(N)nc2c1ncn2CCOCP(=O)(O)O [Example 11, {2-[2-Amino-6-(2-methoxy-ethoxy)-purin-9-yl]-ethoxymethyl}-phosphonic acid] | > 10 | 11 | 0.805 | > 10 | 11 | 3.76 | 1.98 | 5.1
CCCOc1nc(N)nc2c1ncn2CCOCP(=O)(N[C@H](C)C(=O)OC)N[C@H](C)C(=O)OC [Example 18] | 7.6 | 9.9 | 1.28 | 24 | 9 | 5.4 | 2.33 | 9.1
CCOc1nc(N)nc2c1ncn2CCOCP(=O)(O)O [Example 5, [2-(2-Amino-6-ethoxy-purin-9-yl)-ethoxymethyl]-phosphonic acid] | 2 | 2.84 | 0.223 | 2.44 | 3.59 | 2.48 | 0.639 | 2.59
CCCOc1nc(N)nc2c1ncn2CCOCP(=O)(N[C@@H](Cc1ccccc1)C(=O)OCC)N[C@@H](Cc1ccccc1)C(=O)OCC [Example 15] | 0.102 | 0.081 | 0.003 | 1.28 | 0.018 | 0.026 | 0.007 | 0.112
Nc1nc(OC2CCCCC2)c2ncn(CCOCP(=O)(O)O)c2n1 [Example 6, [2-(2-Amino-6-cyclohexyloxy-purin-9-yl)-ethoxymethyl]-phosphonic acid] | 17 | > 10 | 0.439 | 13 | > 10 | 3.01 | 6 | 11
CCCCCOc1nc(N)nc2c1ncn2CCOCP(=O)(O)O [Example 7, [2-(2-Amino-6-pentyloxy-purin-9-yl)-ethoxymethyl]-phosphonic acid] | 2.57 | 3.36 | 0.101 | 2.61 | 2.45 | 0.595 | 0.596 | 1.57
CCCOc1nc(N)nc2c1ncn2CCOCP(=O)(Oc1ccccc1)N1CCC[C@H]1C(=O)OCc1ccccc1 (stereo partly shown) [Example 56] | 1.09 | 2.13 | 0.722 | 3.86 | 1.93 | 1.25 | 0.389 | 1.49
CCCCOC(=O)[C@H](C)NP(=O)(COCCn1cnc2c(OCCOC)nc(N)nc21)N[C@@H](C)C(=O)OCCCC [Example 49] | 0.05 | 0.368 | 0.001 | 5.1 | 0.109 | 0.003 | 0.002 | 0.025
CCOC(=O)[C@H](Cc1ccccc1)NP(=O)(COCCn1cnc2c(OC)nc(N)nc21)N[C@@H](Cc1ccccc1)C(=O)OCC [Example 30] | 0.023 | 0.036 | 0.003 | 1.9 | 0.027 | 0.103 | 0.01 | 0.017
CCCCOC(=O)[C@H](C)NP(=O)(COCCn1cnc2c(OC3CCCC3)nc(N)nc21)N[C@@H](C)C(=O)OCCCC [Example 47] | 0.326 | 0.103 | 0.001 | 1.81 | 0.055 | 0.008 | 0.004 | 0.05
Nc1nc(NC2CC2)c2ncn(CCOCP(=O)(O)O)c2n1 [Example 12, [2-(2-Amino-6-cyclopropylamino-purin-9-yl)-ethoxymethyl]-phosphonic acid] | 70 | 35 | 1.23 | 38 | 38 | 6.1 | 2.19 | 18
CCCCOC(=O)[C@H](Cc1ccccc1)NP(=O)(COCCn1cnc2c(OC)nc(N)nc21)N[C@@H](Cc1ccccc1)C(=O)OCCCC [Example 31] | 0.02 | 0.006 | 0.001 | 0.604 | 0.006 | 0.016 | 0.002 | 0.005
CCOC(=O)[C@H](C)NP(=O)(COCCn1cnc2c(OCCOC)nc(N)nc21)N[C@@H](C)C(=O)OCC [Example 48] | 1.71 | 4.09 | 0.108 | > 10 | 2.52 | 0.372 | 0.061 | 0.976
CCCCOC(=O)[C@H](C)NP(=O)(COCCn1cnc2c(OCC)nc(N)nc21)N[C@@H](C)C(=O)OCCCC [Example 38] | 0.053 | 0.017 | 0.001 | 0.799 | 0.012 | 0.002 | 0.002 | 0.02
CCCCOC(=O)[C@H](C)NP(=O)(COCCn1cnc2c(OCCCC)nc(N)nc21)N[C@@H](C)C(=O)OCCCC [Example 36] | 0.12 | 0.013 | – | 0.869 | 0.007 | 0.003 | 0.002 | 0.011

— US8163718B2, “Nucleoside analogues containing phosphonate or phosphonamide groups” (Gilead Sciences, Inc., priority 2008, dated 2012)
